In PMC3871589, “Evaluation of STAT3 Signaling in ALDH+ and ALDH+/CD44+/CD24− Subpopulations of Breast Cancer Cells” (PLoS ONE, 2013):

How the values were obtained:
[1] = system: ALDH+ subpopulation from MDA-MB-231, SUM159, and SK-BR3 cells; assay: MTT cell viability assay, ALDH+ subpopulation; type: cell-based, human; conditions: 1 to 10 µmol/L 72 hours, ShRNA 48 hours
Protocol: (§1) The breast cancer cells were seeded in 96-well plates (3,000 cells/well) in triplicates in a serum-free mammary epithelial basal medium. The following day, cancer cells were treated with 1 to 10 µmol/L of LLL12 or Stattic for 72 hours, STAT3 ShRNA or control GFP shRNA lentivirus (CTL ShRNA) for 48 hours. MTT (Thiazolyl Blue Tetrazolium Bromide, Sigma-Aldrich) assay was used to determine the cell viability.

[2] = system: ALDH+/CD44+/CD24− SUM-159 breast cancer stem-like cells; assay: Mouse xenograft of SUM159 ALDH+/CD44+/CD24− cells; type: in vivo, NOD/SCID mice; conditions: 5 mg/kg IP daily; P<0.05
Protocol: (§2) All animal studies were conducted in accordance with the principles and standard procedures approved by IACUC at the Research Institute at Nationwide Children’s Hospital and the University Committee on the Use and Care of Animals at the University of Michigan. ALDH^+ subpopulations of MDA-MB-231 and ALDH^+/CD44^+/CD24^− subpopulations of SUM-159 breast cancer cells (1×10^5) respectively were injected subcutaneous (s.c.) into the flank area of female Non-obese diabetic (NOD)/Severe combined immunodeficiency (SCID) mice which were purchased from Jackson Laboratory.

[3] = system: MDA-MB-231 ALDH+ breast cancer stem-like cells; assay: Mouse xenograft of MDA-MB-231 ALDH+ breast cancer stem-like cells; type: in vivo, NOD/SCID mice; conditions: 5 mg/kg IP daily
Protocol: as §2

AKT1 = AKT1 (Homo sapiens, UniProt P31749); assay: Kinase profiler assay, AKT1; type: biochemical; conditions: bound stated jointly for the other protein kinases; Table S3
Sequence of AKT1 (P31749 whole entry): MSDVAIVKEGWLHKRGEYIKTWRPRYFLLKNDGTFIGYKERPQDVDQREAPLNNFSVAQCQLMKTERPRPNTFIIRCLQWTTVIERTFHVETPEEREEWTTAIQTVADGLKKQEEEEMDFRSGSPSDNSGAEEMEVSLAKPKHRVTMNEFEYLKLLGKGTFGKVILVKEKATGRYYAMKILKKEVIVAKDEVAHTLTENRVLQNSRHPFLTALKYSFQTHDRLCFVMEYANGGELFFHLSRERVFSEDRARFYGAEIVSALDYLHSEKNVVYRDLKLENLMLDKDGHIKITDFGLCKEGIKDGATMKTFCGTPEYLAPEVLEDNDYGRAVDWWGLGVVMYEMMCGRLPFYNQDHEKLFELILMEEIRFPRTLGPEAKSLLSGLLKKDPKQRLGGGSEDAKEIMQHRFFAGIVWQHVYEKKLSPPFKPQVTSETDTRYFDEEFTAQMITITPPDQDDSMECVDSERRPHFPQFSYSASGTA
Protocol: (§3) The effects of LLL12 on twenty six purified human protein kinases were performed at the Millipore UK Limited (Dundee, UK) and Reaction Biology Corp. (Malvern, PA) using the Kinase profiler assay. Assays contained a peptide substrate, purified recombinant human protein kinases to be tested, and gamma-labeled ATP, magnesiumion. Radioactive phosphorylated product was measured and quantitated via a scintillation counter.

c-SRC = c-SRC (Homo sapiens, UniProt P12931); assay: Kinase profiler assay, c-SRC; type: biochemical; conditions: 10 concentrations, 100 µM highest; Table S3
Protocol: as §3

PDK1 = PDK1 (Homo sapiens, UniProt O15530); assay: Kinase profiler assay, PDK1; type: biochemical; conditions: bound stated jointly for the other protein kinases; Table S3
Sequence of PDK1 (O15530 whole entry): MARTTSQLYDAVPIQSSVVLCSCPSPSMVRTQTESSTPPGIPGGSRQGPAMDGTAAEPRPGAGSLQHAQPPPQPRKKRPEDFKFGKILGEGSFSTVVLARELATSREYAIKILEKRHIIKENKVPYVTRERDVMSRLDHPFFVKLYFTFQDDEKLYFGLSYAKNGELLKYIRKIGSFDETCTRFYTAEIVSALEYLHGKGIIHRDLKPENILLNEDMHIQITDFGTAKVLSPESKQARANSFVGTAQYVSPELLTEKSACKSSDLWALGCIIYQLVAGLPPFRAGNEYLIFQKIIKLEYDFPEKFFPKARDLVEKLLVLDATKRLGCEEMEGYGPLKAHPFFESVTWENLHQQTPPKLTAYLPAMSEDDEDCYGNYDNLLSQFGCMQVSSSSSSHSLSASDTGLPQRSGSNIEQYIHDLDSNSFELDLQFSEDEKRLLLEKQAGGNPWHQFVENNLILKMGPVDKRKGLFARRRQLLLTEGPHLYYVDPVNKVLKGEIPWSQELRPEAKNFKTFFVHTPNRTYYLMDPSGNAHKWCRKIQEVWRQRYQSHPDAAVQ
Protocol: as §3

JAK2 = JAK2 (Homo sapiens, UniProt O60674); assay: Kinase profiler assay, JAK2; type: biochemical; conditions: 10 concentrations, 100 µM highest; Table S3
Sequence of JAK2 (O60674 whole entry): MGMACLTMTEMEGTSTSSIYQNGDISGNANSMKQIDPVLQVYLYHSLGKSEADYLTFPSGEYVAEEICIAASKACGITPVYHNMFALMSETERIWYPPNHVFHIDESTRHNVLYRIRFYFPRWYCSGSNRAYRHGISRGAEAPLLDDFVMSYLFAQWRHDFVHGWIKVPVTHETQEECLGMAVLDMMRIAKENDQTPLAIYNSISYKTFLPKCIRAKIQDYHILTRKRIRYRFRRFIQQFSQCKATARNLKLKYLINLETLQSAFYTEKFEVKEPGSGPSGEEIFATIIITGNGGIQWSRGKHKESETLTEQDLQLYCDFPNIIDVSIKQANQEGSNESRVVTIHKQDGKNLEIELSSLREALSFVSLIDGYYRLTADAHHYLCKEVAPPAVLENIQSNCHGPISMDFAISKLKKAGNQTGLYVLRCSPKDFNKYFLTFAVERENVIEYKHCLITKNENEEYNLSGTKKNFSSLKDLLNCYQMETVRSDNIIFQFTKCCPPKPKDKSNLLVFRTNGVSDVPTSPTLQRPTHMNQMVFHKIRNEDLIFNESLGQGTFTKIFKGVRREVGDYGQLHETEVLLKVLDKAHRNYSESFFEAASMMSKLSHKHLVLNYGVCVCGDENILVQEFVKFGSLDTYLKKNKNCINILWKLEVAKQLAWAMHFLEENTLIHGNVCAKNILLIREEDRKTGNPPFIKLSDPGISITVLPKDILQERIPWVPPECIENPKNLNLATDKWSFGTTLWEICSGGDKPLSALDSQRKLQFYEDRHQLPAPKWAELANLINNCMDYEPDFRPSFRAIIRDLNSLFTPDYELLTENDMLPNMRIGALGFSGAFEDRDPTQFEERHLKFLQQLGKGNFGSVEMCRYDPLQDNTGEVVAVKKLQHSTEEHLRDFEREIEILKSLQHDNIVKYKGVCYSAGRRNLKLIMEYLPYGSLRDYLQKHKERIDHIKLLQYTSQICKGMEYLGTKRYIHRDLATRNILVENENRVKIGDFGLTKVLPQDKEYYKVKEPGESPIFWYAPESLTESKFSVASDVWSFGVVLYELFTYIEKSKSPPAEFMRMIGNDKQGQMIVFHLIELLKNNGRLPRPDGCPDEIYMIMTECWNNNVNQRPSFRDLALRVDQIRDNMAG
Protocol: as §3

[4] = system: STAT3 target genes Cyclin D1, survivin, Bcl-2 and Twist1; assay: Expression of STAT3 target genes in un-separated breast cancer cells; type: cell-based, human; conditions: un-separated MDA-MB-231, SK-BR-3, SUM159 cells; 10 µM, 24 hours
Protocol: LLL12 was synthesized in Dr. Pui-Kai Li’s laboratory (College of Pharmacy, The Ohio State University). Un-separated cells were treated with 10 µM of LLL12 or DMSO for 24 hours, and the phosphorylation of STAT3 (Y705), and ERK 1/2 (T202/Y204), and expression of STAT3 downstream genes, cleaved caspase-3, and PARP were detected by Western blots. (JPG) Click here for additional data file.

ErB2/HER2 = ErB2/HER2 (Homo sapiens, UniProt P04626); conditions: read-out: IC50 on ErB2/HER2; bound stated jointly for the other protein kinases; Table S3
Sequence of ErB2/HER2 (P04626 23-1255): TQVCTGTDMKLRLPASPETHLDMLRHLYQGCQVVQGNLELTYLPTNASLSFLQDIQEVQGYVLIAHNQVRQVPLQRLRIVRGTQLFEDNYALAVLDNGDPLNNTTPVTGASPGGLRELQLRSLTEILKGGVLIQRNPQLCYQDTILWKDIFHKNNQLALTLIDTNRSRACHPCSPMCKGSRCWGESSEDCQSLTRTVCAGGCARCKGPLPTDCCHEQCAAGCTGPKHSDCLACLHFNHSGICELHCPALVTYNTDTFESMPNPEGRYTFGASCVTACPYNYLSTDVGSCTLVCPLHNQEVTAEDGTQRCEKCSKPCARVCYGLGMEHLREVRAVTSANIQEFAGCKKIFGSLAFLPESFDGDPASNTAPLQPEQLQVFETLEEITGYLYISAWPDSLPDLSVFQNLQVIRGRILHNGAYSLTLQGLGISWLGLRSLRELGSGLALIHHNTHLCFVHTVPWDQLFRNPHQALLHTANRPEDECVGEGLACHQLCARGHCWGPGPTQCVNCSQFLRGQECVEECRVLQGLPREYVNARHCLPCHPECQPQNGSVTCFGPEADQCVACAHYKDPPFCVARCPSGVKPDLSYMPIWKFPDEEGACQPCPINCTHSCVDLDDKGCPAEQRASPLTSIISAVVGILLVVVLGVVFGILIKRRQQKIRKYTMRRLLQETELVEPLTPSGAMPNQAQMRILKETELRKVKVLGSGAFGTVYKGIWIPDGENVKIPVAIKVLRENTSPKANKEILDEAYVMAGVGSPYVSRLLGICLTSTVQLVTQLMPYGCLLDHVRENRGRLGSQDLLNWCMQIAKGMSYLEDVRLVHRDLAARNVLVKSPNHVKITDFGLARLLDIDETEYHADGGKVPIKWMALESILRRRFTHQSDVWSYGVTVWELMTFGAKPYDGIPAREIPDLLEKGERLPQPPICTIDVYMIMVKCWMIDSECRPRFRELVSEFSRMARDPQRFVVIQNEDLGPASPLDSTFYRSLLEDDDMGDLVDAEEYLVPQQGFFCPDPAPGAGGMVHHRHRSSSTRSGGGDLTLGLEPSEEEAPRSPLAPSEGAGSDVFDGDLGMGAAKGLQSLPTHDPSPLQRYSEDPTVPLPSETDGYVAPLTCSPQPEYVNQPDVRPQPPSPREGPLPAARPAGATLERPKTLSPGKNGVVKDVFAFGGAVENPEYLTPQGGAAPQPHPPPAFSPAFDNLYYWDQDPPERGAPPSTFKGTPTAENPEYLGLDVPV
Protocol: as §3

mTOR = mTOR (Homo sapiens, UniProt P42345); assay: Kinase profiler assay, mTOR; type: biochemical; conditions: bound stated jointly for the other protein kinases; Table S3
Protocol: as §3

STAT3 = conditions: cited from earlier work
Fyn = Fyn (Homo sapiens, UniProt P06241); assay: Kinase profiler assay, Fyn; type: biochemical; conditions: 10 concentrations, 100 µM highest; Table S3
Protocol: as §3

Fes = Fes (Homo sapiens, UniProt P07332); assay: Kinase profiler assay, Fes; type: biochemical; conditions: 10 concentrations, 100 µM highest; Table S3
Sequence of Fes (P07332 whole entry): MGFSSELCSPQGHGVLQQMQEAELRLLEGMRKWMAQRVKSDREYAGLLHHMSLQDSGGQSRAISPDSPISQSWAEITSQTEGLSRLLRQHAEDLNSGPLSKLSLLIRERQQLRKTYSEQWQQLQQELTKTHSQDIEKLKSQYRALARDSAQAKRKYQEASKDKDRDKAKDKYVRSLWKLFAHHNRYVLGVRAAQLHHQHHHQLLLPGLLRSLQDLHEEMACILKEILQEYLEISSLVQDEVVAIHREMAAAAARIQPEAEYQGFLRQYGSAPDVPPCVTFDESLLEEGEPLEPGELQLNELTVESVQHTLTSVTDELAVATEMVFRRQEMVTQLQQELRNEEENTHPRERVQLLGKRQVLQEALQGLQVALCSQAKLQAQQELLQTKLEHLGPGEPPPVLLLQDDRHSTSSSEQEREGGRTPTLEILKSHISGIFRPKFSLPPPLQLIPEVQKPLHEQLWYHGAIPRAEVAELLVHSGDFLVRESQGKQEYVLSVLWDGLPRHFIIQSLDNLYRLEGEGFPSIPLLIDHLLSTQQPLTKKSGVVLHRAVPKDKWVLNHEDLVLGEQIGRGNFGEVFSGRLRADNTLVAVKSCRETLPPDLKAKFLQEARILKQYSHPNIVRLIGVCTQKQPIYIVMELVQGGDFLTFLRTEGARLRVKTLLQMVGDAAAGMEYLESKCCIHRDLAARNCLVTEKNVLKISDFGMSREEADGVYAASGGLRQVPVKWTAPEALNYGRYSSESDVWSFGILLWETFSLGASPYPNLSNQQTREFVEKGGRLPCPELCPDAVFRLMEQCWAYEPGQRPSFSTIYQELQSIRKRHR
Protocol: as §3

[5] = system: tumor tissues from breast cancer stem-like cells; assay: Immunohistochemistry of tumor tissues (Ki-67, cleaved caspase-3); type: in vivo, NOD/SCID mice; conditions: 5 mg/kg IP daily
Protocol: Human breast cancer tissue microarray slides, comprising 95 breast cancer cases, were obtained from the Biochain Institute, Inc.. These slides were baked at 60°C for 1 hour. After deparaffinization, the slides were boiled in a pressure cooker filled with 10 mM Sodium Citrate (PH6.0), and then subjected to immunohistochemistry or immunofluorescence staining. P-STAT3 (Y705) (1∶25; Signaling Technology, Beverly, MA), ALDH1 (1∶100; BD Pharmingen, San Diego, CA), Ki-67 (1∶100; Santa Cruz Biotechnology, Santa Cruz, CA) or cleaved Caspase-3 (1∶100; Signaling Technology, Beverly, MA) antibody were used. For immunofluorescence, the slides were incubated with both primary antibodies and double-stained with Alexa Fluor® 488 conjugated anti-rabbit IgG and Alexa Fluor® 594 conjugated anti-mouse IgG (Cell Signaling Technology, Beverly, MA) overnight at 4°C. The nuclei were subsequently stained with DAPI. For immunohistochemistry, endogenous peroxidase activity was quenched by incubation in 3% hydrogen peroxide for 10 min. After blocking, the slides were incubated with primary antibody overnight at 4°C. The Histostain-Plus Kits (Invitrogen, Carlsbad, CA) were used per the manufacturer’s protocol. […] The staining intensity was scored under microscope as described elsewhere. Significance of correlation between P-STAT3 and ALDH1 was determined using two-sided Pearson Chi-square (χ^2) test.

ALDH− cells = assay: MTT cell viability assay, ALDH− subpopulation; type: cell-based, human; conditions: Figure S4
Protocol: as §1

STAT1 = conditions: cited from earlier work
[6] = 5 mg/kg IP daily; data not shown
Bmx = Bmx (Homo sapiens, UniProt P51813); assay: Kinase profiler assay, Bmx; type: biochemical; conditions: 10 concentrations, 100 µM highest; Table S3
Sequence of Bmx (P51813 whole entry): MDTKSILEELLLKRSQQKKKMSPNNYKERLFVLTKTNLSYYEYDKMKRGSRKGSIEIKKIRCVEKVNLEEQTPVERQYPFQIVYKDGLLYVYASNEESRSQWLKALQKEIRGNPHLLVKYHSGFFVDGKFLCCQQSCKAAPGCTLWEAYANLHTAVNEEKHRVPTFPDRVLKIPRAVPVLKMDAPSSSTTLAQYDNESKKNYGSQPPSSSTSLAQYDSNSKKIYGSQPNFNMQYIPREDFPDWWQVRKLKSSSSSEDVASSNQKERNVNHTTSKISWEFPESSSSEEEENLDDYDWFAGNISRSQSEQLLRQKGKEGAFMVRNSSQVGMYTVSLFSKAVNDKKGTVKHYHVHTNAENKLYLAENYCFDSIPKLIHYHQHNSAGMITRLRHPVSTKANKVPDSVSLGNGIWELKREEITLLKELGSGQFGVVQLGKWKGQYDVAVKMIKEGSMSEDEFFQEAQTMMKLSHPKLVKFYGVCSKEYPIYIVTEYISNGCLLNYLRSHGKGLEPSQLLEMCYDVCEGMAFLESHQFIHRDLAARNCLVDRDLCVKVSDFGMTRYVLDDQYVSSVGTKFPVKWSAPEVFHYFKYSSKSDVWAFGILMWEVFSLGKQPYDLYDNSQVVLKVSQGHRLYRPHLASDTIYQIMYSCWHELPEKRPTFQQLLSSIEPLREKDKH
Protocol: as §3

Compound: NS(=O)(=O)c1cccc2c1C(=O)c1cccc(O)c1C2=O [LLL12]
- cell viability of the ALDH+ subpopulation [1]: inhibit
- tumor volume [2]: significantly suppressed
- tumor volume ([3]; 15 days, P<0.05 vs vehicle): significantly suppressed
- tumor weight ([3]; 15 days, P<0.05 vs vehicle): significantly suppressed
- P-STAT3 in tumor tissue ([3]; Western blot of tumors): decreased
- cleaved caspase-3 in tumor tissue ([3]; Western blot of tumors): increased
- IC50 (AKT1): ≥ 77.9 µM
- IC50 (c-SRC): > 100 µM
- IC50 (PDK1): ≥ 77.9 µM
- IC50 (JAK2): > 100 µM
- expression of STAT3 target genes Cyclin D1, survivin, Bcl-2 and Twist1 [4]: inhibited
- IC50 (ErB2/HER2): ≥ 77.9 µM
- IC50 (mTOR): ≥ 77.9 µM
- STAT3 DNA binding activity (STAT3): inhibited
- IC50 (Fyn): > 100 µM
- IC50 (Fes): > 100 µM
- number of Ki-67 positive cells [5]: decreased
- number of cleaved caspase-3 positive cells [5]: increased
- effects against the ALDH− cells (cell viability) (ALDH− cells): some inhibitory effects
- STAT1 DNA binding activity (STAT1): not
- body weight compared to vehicle control [6]: did not differ
- IC50 (Bmx): > 100 µM
